The subject of test [1] is Brassica rapa subsp. chinensis. Kind of test: whole plant or invertebrate. The format is functional. To be noted: 72 h, read-out: GI.
Description: Phytotoxicity against Brassica rapa subsp. chinensis assessed as growth inhibition of hypocotyl at 100 ppm treated to seeds after 3 days
The subject of test [2] is Brassica rapa subsp. chinensis. Kind of test: whole plant or invertebrate. In kind it is functional. To be noted: 72 h, read-out: GI. The source holds these as a separate data set.
Description: Phytotoxicity against Brassica rapa subsp. chinensis assessed as growth inhibition of radicle at 100 ppm treated to seeds after 3 days
In test [3] the test system is Pythium. Kind of test: microbe, parasite or virus in culture. In kind it is functional. The conditions noted are these: read-out: GI.
Description: Fungitoxic activity against Pythium sp. assessed as mycelial growth inhibition at 100 ppm after 4 to 5 days by agar dilution method
Test [4] relates to Athelia rolfsii. Kind of test: microbe, parasite or virus in culture. The format is functional. To be noted: Agroathelia rolfsii, read-out: GI.
Description: Fungitoxic activity against Athelia rolfsii assessed as mycelial growth inhibition at 100 ppm after 4 to 5 days by agar dilution method
In test [5] the test system is Athelia rolfsii. Kind of test: Fungitoxic activity against Athelia rolfsii assessed as mycelial growth inhibition at 10 ppm after 4 to 5 days by agar dilution method. The format is functional. To be noted: Agroathelia rolfsii; read-out: GI. Background: In agar dilution, organisms are placed on agar that contains the substance at set levels.
In test [6] the test system is Pythium. Kind of test: Fungitoxic activity against Pythium sp. assessed as mycelial growth inhibition at 10 ppm after 4 to 5 days by agar dilution method. The conditions noted are these: read-out: GI.

In ChEMBL document CHEMBL3046649, “Fungitoxic and Phytotoxic Activities of Cinnamic Acid Esters and Amides” (2000) one finds inhibition of growth data, which are given here for 25 compounds.

`CC(C)OC(=O)/C=C/c1ccc(C(C)C)cc1` [ISOPROPYL 3-(4-ISOPROPYLPHENYL)ACRYLATE]: the inhibition of growth at 100 ppm in test [1] is 18%; in test [2], 0%; in the test on Pythium [3], 70%; in the test with Athelia rolfsii [4] it was 92%. Further, the figures for the inhibition of growth at 10 ppm in the test with Athelia rolfsii [5] and in the test on Pythium [6] were 42% and 21%, respectively.

Turning to `CCC(C)NC(=O)/C=C/c1ccc(Cl)cc1` (stereo not given) [N-SEC-BUTYL-3-(4-CHLOROPHENYL)ACRYLAMIDE], the inhibition of growth at 100 ppm in test [1] is 40%; in test [2], 61%; in the test on Pythium [3] it was 43%; with Athelia rolfsii [4] it was 88%. Further, the values for the inhibition of growth at 10 ppm in the test with Athelia rolfsii [5] and in the test with Pythium [6] were 44% and 41%, respectively.

Take `CCCNC(=O)/C=C/c1ccccc1` [N-PROPYLCINNAMAMIDE]: the inhibition of growth at 100 ppm was 15% in test [1], 63% in test [2], 54% in the test with Pythium [3] and 89% in the test on Athelia rolfsii [4]. The inhibition of growth at 10 ppm was found to be 26% in the test on Athelia rolfsii [5] and 17% in the test on Pythium [6].

In the case of `C=CCc1ccc(OC(=O)/C=C/c2ccc(C(C)C)cc2)c(OC)c1` [4-ALLYL-2-METHOXYPHENYL 3-(4-ISOPROPYLPHENYL)ACRYLATE], the inhibition of growth at 100 ppm in test [1] worked out at 40%; in test [2], 0%; in the test with Pythium [3], 62%; with Athelia rolfsii [4] it was 86%. Moreover, the inhibition of growth at 10 ppm with Athelia rolfsii [5] and with Pythium [6] was 8% throughout.

As to `CC(C)OC(=O)/C=C/c1ccc(Cl)cc1` [ISOPROPYL 3-(4-CHLOROPHENYL)ACRYLATE], the inhibition of growth at 100 ppm is 18% in test [1], 0% in test [2], 86% with Pythium [3] and 99% in the test with Athelia rolfsii [4]. In addition, the results for the inhibition of growth at 10 ppm in the test on Athelia rolfsii [5] and with Pythium [6] were 34% and 7%, respectively.

In the case of `CCC(C)NC(=O)/C=C/c1ccc(C(C)C)cc1` (stereo not given) [N-SEC-BUTYL-3-(4-ISOPROPYLPHENYL)ACRYLAMIDE], the inhibition of growth at 100 ppm in test [1] was 29%; in test [2] it was 46%; with Pythium [3] it was 73%; in the test on Athelia rolfsii [4], 84%. Moreover, the inhibition of growth at 10 ppm in the test with Athelia rolfsii [5] was 33%; in the test on Pythium [6], 36%.

For the compound `O=C(/C=C/c1ccc(Cl)cc1Cl)OCCc1ccccc1` [PHENETHYL 3-(2,4-DICHLOROPHENYL)ACRYLATE], the inhibition of growth at 100 ppm came to 32% in test [1], 0% in test [2], 63% in the test on Pythium [3] and 79% with Athelia rolfsii [4]. Moreover, the results for the inhibition of growth at 10 ppm with Athelia rolfsii [5] and in the test with Pythium [6] were 0% and 21%, respectively.

For `CC(C)=CCCC(C)CCOC(=O)/C=C/c1ccc(Cl)cc1` (stereo not given) [3,7-DIMETHYLOCT-6-ENYL 3-(4-CHLOROPHENYL)ACRYLATE], the inhibition of growth at 100 ppm in test [1] is 26%; in test [2], 15%; in the test with Pythium [3] it was 64%; with Athelia rolfsii [4], 83%. Also, the inhibition of growth at 10 ppm in the test with Athelia rolfsii [5] was 19%; in the test with Pythium [6] it was 8%.

In the case of `CC(C)c1ccc(/C=C/C(=O)OCCOc2ccccc2)cc1`, the inhibition of growth at 100 ppm in test [1] is 32%; in test [2] it was 0%; in the test with Pythium [3] it was 46%; in the test on Athelia rolfsii [4], 64%. Also, the inhibition of growth at 10 ppm with Athelia rolfsii [5] was found to be 8%; in the test on Pythium [6], 3%.

Consider `CCC(C)NC(=O)/C=C/c1ccccc1` (stereo not given) [N-SEC-BUTYLCINNAMAMIDE], for which the inhibition of growth at 100 ppm amounted to 56% in test [1], 77% in test [2], 47% with Pythium [3] and 95% in the test with Athelia rolfsii [4]. Besides, the figures for the inhibition of growth at 10 ppm with Athelia rolfsii [5] and in the test on Pythium [6] were 35% and 0%, respectively.

As to `CC(C)NC(=O)/C=C/c1ccc(C(C)C)cc1` [N-ISOPROPYL-3-(4-ISOPROPYLPHENYL)ACRYLAMIDE], the inhibition of growth at 100 ppm in test [1] stood at 50%; in test [2] it was 62%; with Pythium [3], 62%; in the test on Athelia rolfsii [4], 80%. Further, the inhibition of growth at 10 ppm in the test on Athelia rolfsii [5] and in the test with Pythium [6] was 40% in each case.

Regarding `CCCCNC(=O)/C=C/c1ccc(Cl)cc1` [N-BUTYL-3-(4-CHLOROPHENYL)ACRYLAMIDE], the inhibition of growth at 100 ppm in test [1] is 44%; in test [2], 62%; with Pythium [3], 80%; with Athelia rolfsii [4] it was 93%. The inhibition of growth at 10 ppm was determined as 58% in the test on Athelia rolfsii [5] and 45% with Pythium [6].

Regarding `CCOC(=O)/C=C/c1ccccc1` [ETHYL CINNAMATE], the inhibition of growth at 100 ppm in test [1] is 26%; in test [2] it was 0%; in the test on Pythium [3], 57%; in the test with Athelia rolfsii [4] it was 63%. Also, the inhibition of growth at 10 ppm was 36% with Athelia rolfsii [5] and 14% in the test with Pythium [6].

As for `Cc1cccc(NC(=O)/C=C/c2ccccc2)c1` [N-M-TOLYLCINNAMAMIDE], the inhibition of growth at 100 ppm in test [1] stood at 13%; in test [2], 59%; in the test with Pythium [3], 85%; with Athelia rolfsii [4] it was 83%. For the same compound, the results for the inhibition of growth at 10 ppm with Athelia rolfsii [5] and with Pythium [6] were 34% and 52%, respectively.

Take `CCCCCOC(=O)/C=C/c1ccc(Cl)cc1` [PENTYL 3-(4-CHLOROPHENYL)ACRYLATE]: the inhibition of growth at 100 ppm in test [1] is 27%; in test [2], 22%; in the test on Pythium [3], 58%; in the test with Athelia rolfsii [4] it was 82%. In addition, the inhibition of growth at 10 ppm is 20% in the test with Athelia rolfsii [5] and 17% with Pythium [6].

Take `CCOC(=O)/C=C/c1ccc(Cl)cc1Cl` [ETHYL 3-(2,4-DICHLOROPHENYL)ACRYLATE]: the inhibition of growth at 100 ppm in test [1] is 54%; in test [2], 29%; in the test on Pythium [3] it was 76%; in the test with Athelia rolfsii [4] it was 93%. Besides, the values for the inhibition of growth at 10 ppm with Athelia rolfsii [5] and with Pythium [6] were 32% and 19%, respectively.

With `C=CCc1ccc(OC(=O)/C=C/c2ccc(Cl)cc2)c(OC)c1` [4-ALLYL-2-METHOXYPHENYL 3-(4-CHLOROPHENYL)ACRYLATE], the inhibition of growth at 100 ppm in test [1] was 38%; in test [2], 49%; in the test with Pythium [3], 89%; in the test on Athelia rolfsii [4], 89%. For the same compound, the inhibition of growth at 10 ppm worked out at 14% in the test on Athelia rolfsii [5] and 8% with Pythium [6].

In the case of `CC(C)CNC(=O)/C=C/c1ccc(Cl)cc1` [3-(4-CHLOROPHENYL)-N-ISOBUTYLACRYLAMIDE], the inhibition of growth at 100 ppm in test [1] was determined as 43%; in test [2], 69%; in the test with Pythium [3], 73%; with Athelia rolfsii [4], 89%. The inhibition of growth at 10 ppm in the test on Athelia rolfsii [5] worked out at 33%; in the test with Pythium [6] it was 50%.

With `CC(C)CNC(=O)/C=C/c1ccccc1` [N-ISOBUTYLCINNAMAMIDE], the inhibition of growth at 100 ppm in test [1] stood at 34%; in test [2], 78%; with Pythium [3], 74%; in the test with Athelia rolfsii [4] it was 82%. In addition, the inhibition of growth at 10 ppm in the test on Athelia rolfsii [5] was determined as 29%; in the test with Pythium [6] it was 23%.

In the case of `CCCNC(=O)/C=C/c1ccc(Cl)cc1` [3-(4-CHLOROPHENYL)-N-PROPYLACRYLAMIDE], the inhibition of growth at 100 ppm in test [1] is 43%; in test [2], 64%; in the test on Pythium [3], 88%; in the test with Athelia rolfsii [4], 97%. Further, the inhibition of growth at 10 ppm worked out at 32% with Athelia rolfsii [5] and 30% in the test with Pythium [6].

For the compound `CCCCNC(=O)/C=C/c1ccccc1` [N-BUTYLCINNAMAMIDE], the inhibition of growth at 100 ppm in test [1] amounted to 50%; in test [2], 71%; in the test on Pythium [3], 84%; in the test with Athelia rolfsii [4], 94%. Moreover, the inhibition of growth at 10 ppm in the test on Athelia rolfsii [5] amounted to 45%; with Pythium [6], 33%.

As for `CCCCCCNC(=O)/C=C/c1ccccc1` [N-HEXYLCINNAMAMIDE], the inhibition of growth at 100 ppm was 55% in test [1], 82% in test [2], 87% with Pythium [3] and 91% in the test on Athelia rolfsii [4]. Further, the inhibition of growth at 10 ppm in the test with Athelia rolfsii [5] stood at 32%; in the test with Pythium [6] it was 14%.

In the case of `CCCCCOC(=O)/C=C/c1ccc(C(C)C)cc1` [PENTYL 3-(4-ISOPROPYLPHENYL)ACRYLATE], the inhibition of growth at 100 ppm was found to be 29% in test [1], 0% in test [2], 51% in the test with Pythium [3] and 79% with Athelia rolfsii [4]. Further, the inhibition of growth at 10 ppm was determined as 13% with Athelia rolfsii [5] and 3% in the test on Pythium [6].

`C=CCc1ccc(OC(=O)/C=C/c2ccc(Cl)cc2Cl)c(OC)c1` [4-ALLYL-2-METHOXYPHENYL 3-(2,4-DICHLOROPHENYL)ACRYLATE]: the inhibition of growth at 100 ppm in test [1] turned out to be 28%; in test [2], 6%; in the test with Pythium [3], 67%; with Athelia rolfsii [4] it was 87%. In addition, the inhibition of growth at 10 ppm is 27% in the test with Athelia rolfsii [5] and 23% in the test on Pythium [6].

In the case of `CC(C)NC(=O)/C=C/c1ccc(Cl)cc1` [3-(4-CHLOROPHENYL)-N-ISOPROPYLACRYLAMIDE], the inhibition of growth at 100 ppm was 26% in test [1], 57% in test [2], 45% in the test on Pythium [3] and 94% with Athelia rolfsii [4]. Further, the inhibition of growth at 10 ppm with Athelia rolfsii [5] was 66%; with Pythium [6], 20%.
